Experimental data: publication PMC12154458, “High-Throughput Screens of Repurposing Hub and DOS Chemical Libraries Reveal Compounds with Novel and Potent Inhibitory Activity Against the Essential Non-Neuronal Acetylcholinesterase of Schistosoma mansoni (SmTAChE)” (International Journal of Molecular Sciences, 2025); call rule not given here
Like-named read-outs stand apart in the source and are kept apart here.

Experiments:
[1] = biological target: recombinant human acetylcholinesterase, rHsAChE (Homo sapiens, UniProt P22303); assay: biochemical
[2] = biological target: T1, rSmTAChE (Schistosoma mansoni, UniProt A0A3Q0KMM5); assay type: biochemical;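 as to Inhibition (%) (Average): mostly 20 µM final but a few compounds at 5 or 10 µM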;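 as to Inhibition (%) Replicate A: mostly 20 µM final but a few compounds at 5 or 10 µM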;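 as to Inhibition (%) Replicate B: mostly 20 µM final but a few compounds at 5 or 10 µM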
[3] = biological target: T1, rSmTAChE; assay: biochemical
[4] = dose response analysis of Drug Repurposing Hub hits against rHsAChE
[5] = read-out: HTS/rSmTAChE Inhibition (Ave, %)
[6] = read-out: rSmTAChE HTS Inhibition (Ave, %)
[7] = Table 3, read-out: IC50 (µM) rHsAChE

T1 sequence (A0A3Q0KMM5 27-661 limits assumed): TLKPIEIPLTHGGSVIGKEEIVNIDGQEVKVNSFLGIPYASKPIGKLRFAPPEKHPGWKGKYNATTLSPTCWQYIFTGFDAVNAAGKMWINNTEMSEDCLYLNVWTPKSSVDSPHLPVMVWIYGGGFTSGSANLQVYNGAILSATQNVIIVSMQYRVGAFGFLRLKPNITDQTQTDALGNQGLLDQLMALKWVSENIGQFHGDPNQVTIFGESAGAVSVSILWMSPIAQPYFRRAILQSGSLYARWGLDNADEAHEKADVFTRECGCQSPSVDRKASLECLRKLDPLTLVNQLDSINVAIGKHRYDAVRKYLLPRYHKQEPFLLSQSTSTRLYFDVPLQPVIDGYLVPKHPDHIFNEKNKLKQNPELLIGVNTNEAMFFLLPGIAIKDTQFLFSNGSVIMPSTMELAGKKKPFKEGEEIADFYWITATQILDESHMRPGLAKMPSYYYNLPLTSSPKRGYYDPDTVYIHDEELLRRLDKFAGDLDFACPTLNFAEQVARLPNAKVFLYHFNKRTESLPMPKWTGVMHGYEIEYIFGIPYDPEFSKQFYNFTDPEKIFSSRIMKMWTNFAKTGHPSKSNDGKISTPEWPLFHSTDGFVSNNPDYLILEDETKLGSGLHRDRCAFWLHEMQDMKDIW
Chain of recombinant human acetylcholinesterase, rHsAChE (P22303 32-614): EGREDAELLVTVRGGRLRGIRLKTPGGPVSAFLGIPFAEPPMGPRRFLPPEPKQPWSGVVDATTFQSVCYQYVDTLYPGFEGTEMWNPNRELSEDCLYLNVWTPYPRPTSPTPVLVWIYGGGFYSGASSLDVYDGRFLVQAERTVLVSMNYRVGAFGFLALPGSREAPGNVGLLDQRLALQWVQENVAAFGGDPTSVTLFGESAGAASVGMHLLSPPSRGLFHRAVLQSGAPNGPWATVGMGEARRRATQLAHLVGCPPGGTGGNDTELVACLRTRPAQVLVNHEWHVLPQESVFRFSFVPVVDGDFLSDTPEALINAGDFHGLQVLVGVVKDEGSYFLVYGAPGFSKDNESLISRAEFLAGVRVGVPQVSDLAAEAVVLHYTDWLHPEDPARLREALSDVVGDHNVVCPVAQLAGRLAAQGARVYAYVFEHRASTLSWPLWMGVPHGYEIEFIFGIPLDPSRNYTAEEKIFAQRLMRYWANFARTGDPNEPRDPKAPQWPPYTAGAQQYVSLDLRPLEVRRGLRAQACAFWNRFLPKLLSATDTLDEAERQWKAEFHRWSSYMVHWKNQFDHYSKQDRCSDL

Structure (SMILES)	Data Mode (curve class), rHsAChE [1, 4]	Data Mode (curve class), rSmTAChE [2]	SI (Hs/Sm) [2]	Data Mode (curve class), rHsAChE [1]	SI (Sm/Hs) [1]	IC50 ([1]; read-out: IC50 (µM) rHsAChE)	Inhibition (%) Replicate A [3]	Inhibition (%) Replicate B [3]	IC50 ([2]; read-out: IC50 (µM) rSmTAChE)	other results
CCCCCCCCCCCC1=C(O)C(=O)C=C(O)C1=O [Embelin, reference compound]	decreasing	decreasing	1.44	–	–	–	–	–	–	IC50 ([1]; IC50 (µM) rHsAChE): 1.8 µM; fold greater potency/selectivity for SmTAChE vs. HsAChE (Selectivity Index) [2]: 1.4 fold; inhibition at 10 µM [3, 5]: 88.7%
Brc1cc2c(cc1[C@@H]1Nc3ccccc3[C@@H]3C=CC[C@@H]31)OCO2 [G15, reference compound]	–	decreasing (weakly active)	–	decreasing (weakly active)	2.81	> 13.5 µM	75.36%	80.61%	–	rSmTAChE HTS Inhibition (Ave, %) ([3]; 20 µM): 77.99%
O=C(O)c1ccc(-c2c[nH]c3ncc(-c4ccccc4)cc23)cc1C1CCCC1 [GSK-650394, reference compound]	decreasing	decreasing	3.46	–	–	–	–	–	–	IC50 ([1]; IC50 (µM) rHsAChE): 8.1 µM; IC50 ([1]; qAC50 (IC50), rHsAChE): 8.09 µM; inhibition at 10 µM [3, 5]: 75.4%
CC(C)c1onc(-c2c(Cl)cccc2Cl)c1COc1ccc(/C=C/c2cccc(C(=O)O)c2)c(Cl)c1 [GW-4064, reference compound]	–	decreasing	6.00	decreasing	–	8.83 µM	66.57%	65.41%	1.47 µM	Inhibition (%) (Average) [3]: 65.99%; HTS/rSmTAChE Inhibition (Ave, %) ([3]; 20 µM): 66.00%
O=C(O)CNC(=O)c1c(O)c2ccccc2n(Cc2ccccc2)c1=O [IOX2, reference compound]	–	decreasing	–	decreasing	2.16	7.75 µM	61.67%	70.82%	16.7 µM	IC50 ([2]; read-out: qAC50 (IC50), rSmTAChE): 16.7 µM; rSmTAChE HTS Inhibition (Ave, %) ([3]; 5 µM): 66.25%
COc1ccc(/C=C/CCCCOc2ccc(C(=O)c3cccc(C(=O)O)c3)cc2CCC(=O)O)cc1 [LY223982, reference compound]	–	decreasing	–	decreasing	2.1	7.22 µM	83.69%	77.36%	15.2 µM	rSmTAChE HTS Inhibition (Ave, %) ([3]; 20 µM): 80.52%
O=C(Nc1ncc(SCCN2CCCC2)s1)[C@]1(c2ccc(S(=O)(=O)C3CC3)cc2)C[C@H]1C1CCCCC1 [LY2608204, reference compound]	–	decreasing (weakly active)	–	decreasing	23.28	0.52 µM	71.61%	81.29%	> 12 µM	rSmTAChE HTS Inhibition (Ave, %) ([3]; 20 µM): 76.45%
O=C(NC(=O)c1c(F)cccc1F)Nc1cc(Cl)c(OC(F)(F)C(F)C(F)(F)F)cc1Cl (stereo not shown) [Lufenuron, reference compound]	–	decreasing (weakly active)	–	decreasing	–	–	–	–	–	IC50 ([1]; IC50 (µM) rHsAChE): 12 µM; IC50 ([1]; qAC50 (IC50), rHsAChE): 12 µM; inhibition at 20 µM [3, 6]: 92.6%
COc1ccc2cc(-c3cc(-c4cc(Cl)cc(Cl)c4)nn3[C@@H](C)c3ccc(C(=O)NCCC(=O)O)cc3)ccc2c1 [MK-0893, reference compound]	–	decreasing	–	–	–	–	–	–	–	IC50 (µM) rHsAChE ([1]; Table 1, Inactive = inactive at the maximum tested concentration (40 µM)): Inactive *; inhibition of rHsAChE, result in words ([1]; dose–response, up to 40 µM): no inhibition detected; inhibition at 20 µM [3, 5]: 88.7%
O=C(O)Cn1nnc(-c2cc(N3CCC(Oc4cc(F)ccc4Br)CC3)no2)n1 [MK-8245, reference compound]	decreasing	decreasing	–	–	4.71	–	–	–	–	IC50 [1, 7]: 7.93 µM; inhibition at 20 µM [3, 6]: 71.5%
C[C@H](Cc1ccc(O)c(O)c1)[C@@H](C)Cc1ccc(O)c(O)c1 [Masoprocol, reference compound]	decreasing (weakly active)	decreasing	2.32	–	–	–	–	–	–	inhibition at 20 µM [3, 5]: 76.4%
COc1ccc(-c2ccc3ncc4c(c3c2)n(-c2ccc(N3CCNCC3)c(C(F)(F)F)c2)c(=O)n4C)cn1 [NVP-BGT226, reference compound]	decreasing (weakly active)	decreasing (weakly active)	–	–	2.81	–	–	–	–	IC50 [1, 7]: > 13.5 µM; inhibition at 10 µM [3, 6]: 84.3%
CN(C)C(=O)Oc1cccc([N+](C)(C)C)c1 [Neostigmine bromide, reference compound]	–	decreasing	–	decreasing	–	–	–	–	–	inhibition at 20 µM [3, 6]: 88.1%
